Test [1] addresses Sphingosine 1-phosphate receptor 1 (Homo sapiens, UniProt P21453). Nature of the test: Late-stage fluorescence-based dose-response cell-based counterscreen assay to identify agonists of the Sphingosine 1-Phosphate Receptor 4 (S1P4): Sphingosine 1-Phosphate Receptor 1 (S1P1) agonist assay Set 2. The format is functional. For orientation: A counterscreen serves to expose hits that act by an unwanted route or on another target.

The target in test [2] is Sphingosine 1-phosphate receptor 5 (Homo sapiens, UniProt Q9H228). Nature of the test: S1P5 receptor agonists, human, late-stage follow-up, counter-screen for S1P4 agonist project, cell-based, fluorescence, set 2 (AID 504867). The format is functional.
For test [3], the target named is Sphingosine 1-phosphate receptor 3 (Homo sapiens, UniProt Q99500). Nature of the test: Late-stage fluorescence-based dose-response cell-based counterscreen assay to identify agonists of the Sphingosine 1-Phosphate Receptor 4 (S1P4): Sphingosine 1-Phosphate Receptor 3 (S1P3) agonist assay Set 2. The format is functional.
The target of test [4] is T1, Phospholipase D2 (Homo sapiens, UniProt O14939). Nature of the test: PLD2 purified enzyme concentration response. [Related pubchem assays (depositor defined):AID588854]. The format is functional.
The next test has as its target Phospholipase D1 (Homo sapiens, UniProt Q13393). Nature of the test: PLD1 purified enzyme concentration response. [Related pubchem assays (depositor defined):AID588854]. The test is classed as functional.
Test [5] deals with T1, Phospholipase D2. Nature of the test: PLD2 inhibitor potency in cells, dose response (AID 602147).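 Also: cellular assay in HEK293 cells overexpressing GFP-tagged PLD2.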 The format is functional.
The subject of test [6] is INS1. Nature of the test: protection of INS-1E cells from cytokine death, dose response, ATP luminescence, dry powder (AID 488844). The test is classed as functional, cell-based. The settings on record: Rattus norvegicus.
The test system of test [7] is INS1. Nature of the test: inhibitors of cytokine-induced nitrite release, dose response, cell-based, Griess absorbance, INS-1E, dry powder, set 2 (AID 488868). The format is functional. As to conditions: Rattus norvegicus. Background: Nitrite, measured by Griess reagent, commonly stands in for NO production.
The test system of test [8] is INS1. Nature of the test: inhibitors of cytokine-induced nitrite release, dose response, cell-based, Griess absorbance, INS-1E, dry powder (AID 488866). The test is classed as functional. As to conditions: Rattus norvegicus.
Test [9] in a line: inhibitors of cytokine-induced nitrite release, dose response, cell-based, Griess absorbance, INS-1E, dry powder, set 3 (AID 488870). The test is classed as functional. The settings on record: Rattus norvegicus.
A short description of test [10]: SNU-C1 cell viability reduction, dose response, CellTiter-Glo luminescence (AID 1117323). The format is functional, cell-based. In general terms: Cellular ATP, detected with luciferase, serves as a proxy for viable cell number.
Test [11] in a line: HCT116 cell viability decrease, GSK3B pretreatment – CellTiter-Glo, IC50, dose response (AID 1117339). The format is functional. The settings on record: HCT-116.
Test [12] in a line: cytotoxicity toward HCT116 cells – cell-based, CellTiter-Glo luminescence, IC50, dose response (AID 1117332). The format is functional. As to conditions: HCT-116.
Test [13] in a line: CellTiter-Glo luminescent dose response of DLD-1 viability loss (AID 1117352). The format is functional.
A short description of test [14]: RKO cell viability reduction, dose response, CellTiter-Glo luminescence (AID 1117322). The format is functional.
Test [15] in a line: cells. The format is functional, cell-based.
The target in test [16] is Nuclear receptor subfamily 0 group B member 1 (Homo sapiens, UniProt P51843). Nature of the test: Luminescence-based cell-based high throughput dose response assay for inhibitors of the orphan nuclear receptor subfamily 0, group B, member 1 (DAX1; NR0B1). [Related pubchem assays (depositor defined):AID504766, AID504790]. The format is functional.
Test [17] in a line: Concentration-dependent survival of SW480 colon cancer line, luminescence detection with CellTiter-Glo, half-maximal inhibitory concentration (AID 1117338). The test is classed as functional.
Another test concerns HEK293. Nature of the test: cells. The format is functional, cell-based. As to conditions: Homo sapiens.
Test [18] can be described thus: cytotoxicity toward HT-29 cells – cell-based, CellTiter-Glo luminescence, IC50, dose response (AID 1117330). The test is classed as functional.
Test [19] concerns the target T2, Oxysterols receptor LXR-beta (Homo sapiens, UniProt P55055).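 Also: agonist activity at LXR measured by a cell-based luminescence readout across a dose range, run as a counterscreen for daf-12 agonists; HEK293 cells with Gal4-LXR fusion and GAL4-driven luciferase reporter; potency for activation of Gal4-LXR reporter so compounds are agonists.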
T2 sequence (P55055 whole entry): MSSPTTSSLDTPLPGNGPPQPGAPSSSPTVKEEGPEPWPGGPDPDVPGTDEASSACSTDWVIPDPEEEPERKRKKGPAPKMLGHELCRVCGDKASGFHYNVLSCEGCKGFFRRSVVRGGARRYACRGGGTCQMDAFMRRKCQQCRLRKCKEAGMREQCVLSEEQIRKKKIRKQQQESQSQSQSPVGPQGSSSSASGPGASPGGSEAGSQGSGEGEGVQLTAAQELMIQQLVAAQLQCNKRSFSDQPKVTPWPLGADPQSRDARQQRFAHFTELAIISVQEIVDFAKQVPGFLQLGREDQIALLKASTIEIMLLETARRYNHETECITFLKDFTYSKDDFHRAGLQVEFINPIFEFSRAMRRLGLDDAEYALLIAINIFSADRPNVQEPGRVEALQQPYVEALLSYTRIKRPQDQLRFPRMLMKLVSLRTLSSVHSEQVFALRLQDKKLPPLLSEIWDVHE
The format is functional, cell-based.

A short description of test [20]: cells. The format is functional, cell-based. This is another data set of the same source.
Test [21] in a line: cytotoxicity toward Colo320 cells – cell-based, CellTiter-Glo luminescence, IC50, dose response (AID 1117334). The test is classed as functional. As to conditions: COLO 320.
Test [22] has as its target T3, V-type proton ATPase subunit c' (Saccharomyces cerevisiae S288c, UniProt P32842). Nature of the test: Dose Response of Small Molecules that Regulate V-ATPase Proton Transport in Yeast using pHLuorin, Powder Set1. The format is functional. As to conditions: read-out: EC50_MICROM.
The target in test [23] is T3, V-type proton ATPase subunit c'. Nature of the test: Dose Response of Small Molecules that Regulate V-ATPase Proton Transport in Yeast using pHLuorin, Cherry Pick 2. The test is classed as functional. The settings on record: read-out: EC50_MICROM.
Test [24] deals with T4, Microphthalmia-associated transcription factor (Homo sapiens, UniProt O75030).
T4 sequence (O75030 whole entry): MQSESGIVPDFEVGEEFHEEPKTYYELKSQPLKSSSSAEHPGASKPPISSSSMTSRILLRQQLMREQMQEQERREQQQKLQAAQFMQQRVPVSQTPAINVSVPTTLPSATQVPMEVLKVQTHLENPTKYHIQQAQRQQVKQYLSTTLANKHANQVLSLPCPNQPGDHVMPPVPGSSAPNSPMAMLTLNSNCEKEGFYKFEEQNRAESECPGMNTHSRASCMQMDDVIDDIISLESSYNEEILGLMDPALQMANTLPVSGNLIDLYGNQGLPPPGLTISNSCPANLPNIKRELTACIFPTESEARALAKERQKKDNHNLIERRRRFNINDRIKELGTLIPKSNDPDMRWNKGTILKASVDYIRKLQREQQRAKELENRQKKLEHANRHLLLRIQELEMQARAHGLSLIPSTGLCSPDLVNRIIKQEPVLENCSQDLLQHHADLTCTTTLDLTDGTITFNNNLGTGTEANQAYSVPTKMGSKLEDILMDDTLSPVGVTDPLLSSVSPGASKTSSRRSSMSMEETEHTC
Nature of the test: TRPM1 promoter luciferase signal decrease, dose response, MITF inhibitor project, cell-based, SK-MEL-5, cherry-picked, set 3 (AID 493073).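 Also: SK-MEL-5 melanoma cells with luciferase driven by the MITF target TRPM1 promoter.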 The test is classed as functional.

In test [25] the target is Heat shock protein HSP 90-alpha (Homo sapiens, UniProt P07900). The test is classed as functional, organism-based.

Activity calls are given as the source filed them. Bounds are passed on as bounds.

T1 sequence (O14939 whole entry): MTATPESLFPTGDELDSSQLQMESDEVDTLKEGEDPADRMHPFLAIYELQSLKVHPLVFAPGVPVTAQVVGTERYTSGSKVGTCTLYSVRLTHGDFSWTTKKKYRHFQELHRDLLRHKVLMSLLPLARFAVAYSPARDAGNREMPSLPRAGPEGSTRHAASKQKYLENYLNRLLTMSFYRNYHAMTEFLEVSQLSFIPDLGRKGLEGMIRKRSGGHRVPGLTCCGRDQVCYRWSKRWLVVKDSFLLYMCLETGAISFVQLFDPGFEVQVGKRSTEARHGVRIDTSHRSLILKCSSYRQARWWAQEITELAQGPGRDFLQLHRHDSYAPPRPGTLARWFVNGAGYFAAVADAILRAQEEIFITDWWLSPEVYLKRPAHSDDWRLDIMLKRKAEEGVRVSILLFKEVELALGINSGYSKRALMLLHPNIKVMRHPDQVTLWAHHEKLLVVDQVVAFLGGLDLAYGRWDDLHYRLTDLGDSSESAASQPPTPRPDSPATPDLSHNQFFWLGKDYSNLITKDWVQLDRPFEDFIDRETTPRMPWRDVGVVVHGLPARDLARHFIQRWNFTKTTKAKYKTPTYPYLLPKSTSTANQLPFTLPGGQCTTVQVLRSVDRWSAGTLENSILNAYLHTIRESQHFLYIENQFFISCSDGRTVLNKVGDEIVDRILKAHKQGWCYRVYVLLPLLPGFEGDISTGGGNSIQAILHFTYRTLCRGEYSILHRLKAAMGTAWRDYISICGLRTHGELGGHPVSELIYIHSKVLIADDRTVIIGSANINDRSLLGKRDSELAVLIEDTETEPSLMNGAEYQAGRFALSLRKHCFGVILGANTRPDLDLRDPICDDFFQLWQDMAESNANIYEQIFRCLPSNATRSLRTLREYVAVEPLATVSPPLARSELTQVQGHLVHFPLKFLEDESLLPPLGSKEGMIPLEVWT
T3 sequence (P32842 whole entry): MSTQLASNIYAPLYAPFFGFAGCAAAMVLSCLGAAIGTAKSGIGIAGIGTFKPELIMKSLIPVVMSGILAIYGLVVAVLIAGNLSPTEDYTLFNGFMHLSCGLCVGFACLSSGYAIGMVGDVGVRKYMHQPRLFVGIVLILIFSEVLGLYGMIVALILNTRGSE
Chain of Sphingosine 1-phosphate receptor 5 (Q9H228 whole entry): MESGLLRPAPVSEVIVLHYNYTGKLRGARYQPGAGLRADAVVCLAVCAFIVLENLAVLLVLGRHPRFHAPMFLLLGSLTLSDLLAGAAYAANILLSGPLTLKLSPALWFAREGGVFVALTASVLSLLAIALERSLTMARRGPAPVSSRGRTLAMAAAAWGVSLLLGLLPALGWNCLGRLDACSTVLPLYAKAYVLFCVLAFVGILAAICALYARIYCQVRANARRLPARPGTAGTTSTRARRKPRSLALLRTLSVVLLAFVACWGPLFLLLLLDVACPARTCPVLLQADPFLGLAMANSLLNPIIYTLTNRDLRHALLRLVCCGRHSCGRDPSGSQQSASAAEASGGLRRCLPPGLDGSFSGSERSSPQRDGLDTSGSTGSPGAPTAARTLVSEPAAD
Chain of Sphingosine 1-phosphate receptor 3 (Q99500 whole entry): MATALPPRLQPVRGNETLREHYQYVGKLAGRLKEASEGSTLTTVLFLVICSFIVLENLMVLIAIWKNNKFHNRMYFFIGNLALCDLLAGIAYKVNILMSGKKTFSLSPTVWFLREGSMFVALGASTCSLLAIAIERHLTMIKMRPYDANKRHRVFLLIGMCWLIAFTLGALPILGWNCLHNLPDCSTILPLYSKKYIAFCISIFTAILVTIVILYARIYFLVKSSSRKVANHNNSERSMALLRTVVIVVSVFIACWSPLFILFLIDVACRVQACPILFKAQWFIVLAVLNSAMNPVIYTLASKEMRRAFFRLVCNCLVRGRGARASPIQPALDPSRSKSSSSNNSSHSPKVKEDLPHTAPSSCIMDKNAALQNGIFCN
Chain of Sphingosine 1-phosphate receptor 1 (P21453 whole entry): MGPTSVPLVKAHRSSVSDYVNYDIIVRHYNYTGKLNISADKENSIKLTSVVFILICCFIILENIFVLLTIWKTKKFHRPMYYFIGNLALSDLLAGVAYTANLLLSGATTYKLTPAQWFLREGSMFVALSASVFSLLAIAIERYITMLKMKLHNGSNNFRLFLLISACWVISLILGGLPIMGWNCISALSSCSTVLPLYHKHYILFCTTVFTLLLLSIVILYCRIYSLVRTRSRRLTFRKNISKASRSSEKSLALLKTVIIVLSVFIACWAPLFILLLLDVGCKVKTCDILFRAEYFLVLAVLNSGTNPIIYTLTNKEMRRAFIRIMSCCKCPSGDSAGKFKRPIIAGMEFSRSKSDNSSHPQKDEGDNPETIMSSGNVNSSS
Chain of Nuclear receptor subfamily 0 group B member 1 (P51843 whole entry): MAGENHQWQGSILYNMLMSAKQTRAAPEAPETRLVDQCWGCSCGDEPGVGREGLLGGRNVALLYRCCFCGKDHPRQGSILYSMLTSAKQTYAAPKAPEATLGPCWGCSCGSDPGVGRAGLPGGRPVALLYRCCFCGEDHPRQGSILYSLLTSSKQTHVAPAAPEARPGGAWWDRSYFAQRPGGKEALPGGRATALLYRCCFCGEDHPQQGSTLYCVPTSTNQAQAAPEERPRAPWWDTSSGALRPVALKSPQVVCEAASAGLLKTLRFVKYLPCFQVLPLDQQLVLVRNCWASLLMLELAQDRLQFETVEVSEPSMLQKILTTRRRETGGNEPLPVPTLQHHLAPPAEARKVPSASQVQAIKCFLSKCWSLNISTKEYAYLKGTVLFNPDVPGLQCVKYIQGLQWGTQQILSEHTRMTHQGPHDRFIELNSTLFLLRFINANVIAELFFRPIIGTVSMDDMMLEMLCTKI
Chain of Phospholipase D1 (Q13393 whole entry): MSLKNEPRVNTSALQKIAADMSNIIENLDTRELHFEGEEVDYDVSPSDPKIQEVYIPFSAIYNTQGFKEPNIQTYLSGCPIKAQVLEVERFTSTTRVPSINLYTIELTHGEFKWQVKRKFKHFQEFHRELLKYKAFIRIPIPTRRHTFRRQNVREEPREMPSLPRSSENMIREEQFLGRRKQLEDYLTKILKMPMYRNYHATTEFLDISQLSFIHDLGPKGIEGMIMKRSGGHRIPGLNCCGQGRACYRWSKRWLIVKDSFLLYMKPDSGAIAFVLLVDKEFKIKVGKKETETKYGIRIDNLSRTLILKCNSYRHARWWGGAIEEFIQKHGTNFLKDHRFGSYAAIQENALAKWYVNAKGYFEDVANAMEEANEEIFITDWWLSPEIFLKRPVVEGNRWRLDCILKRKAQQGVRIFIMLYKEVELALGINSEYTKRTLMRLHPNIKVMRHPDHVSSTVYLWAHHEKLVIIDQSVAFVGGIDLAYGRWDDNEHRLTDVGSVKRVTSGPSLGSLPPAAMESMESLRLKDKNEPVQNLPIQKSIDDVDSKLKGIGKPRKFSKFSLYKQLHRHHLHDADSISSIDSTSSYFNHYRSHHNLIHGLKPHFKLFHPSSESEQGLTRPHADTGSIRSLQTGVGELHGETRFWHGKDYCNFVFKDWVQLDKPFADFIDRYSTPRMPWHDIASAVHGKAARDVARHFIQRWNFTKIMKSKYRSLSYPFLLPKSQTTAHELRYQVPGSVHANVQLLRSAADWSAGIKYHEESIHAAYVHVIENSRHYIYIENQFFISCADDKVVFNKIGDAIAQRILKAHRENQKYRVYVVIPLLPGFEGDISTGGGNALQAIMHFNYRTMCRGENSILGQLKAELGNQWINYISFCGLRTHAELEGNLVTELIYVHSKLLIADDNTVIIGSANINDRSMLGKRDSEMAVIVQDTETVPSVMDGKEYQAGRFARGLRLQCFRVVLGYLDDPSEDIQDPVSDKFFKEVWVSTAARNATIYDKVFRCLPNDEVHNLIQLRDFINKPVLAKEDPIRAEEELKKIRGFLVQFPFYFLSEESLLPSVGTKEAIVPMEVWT

As to `CC/N=C1/SC(=Cc2cc(C)n(Cc3ccccc3OC)c2C)C(=O)N1CC`, the results for the EC50 in [1], in [2] and in test [3] were 0.18 µM (active), 0.106 µM (active) and 13.7 µM (inactive), respectively.

Regarding `C[C@@H](CN1CCC2(CC1)C(=O)NCN2c1ccccc1)NC(=O)c1ccc(F)c(F)c1`, the half-maximal inhibitory concentration (IC50) (usually the concentration needed to halve the response being measured) on Phospholipase D2 [4] is 2.22 µM (active); on Phospholipase D1 it was 2.15 µM (active); at Phospholipase D2 [5], 0.21 µM (active).

As for `COc1ccc(S(=O)(=O)N(C)C[C@@H]2Oc3c(NC(=O)Nc4cccc5ccccc45)cccc3C(=O)N([C@@H](C)CO)C[C@H]2C)c(OC)c1`, the concentration at half-maximal activity (AC50) (as a rule, the concentration giving half of the maximal activity seen) is 45.5 µM (active) in the test on INS1 [6], > 260 µM (inactive) with INS1 [7], 74.1 µM (active) in the test on INS1 [8] and 27.7 µM (active) in test [9].

Turning to `Nc1ccc(C(=O)Nc2ccccc2N)cc1` [DINALINE], the IC50 is > 20 µM (inactive) in test [10]; 12.9 µM (inactive) in test [11]; > 6.67 µM (inactive) in [12]; > 20 µM (inactive) in test [13]; > 20 µM (inactive) in [14]; 19.8 µM (inactive) in test [16]. Moreover, the IC50 in [17] is > 20 µM (inactive); in the test with HEK293, 0.255 µM (active); in [18] it was > 20 µM (inactive); in test [21] it was > 20 µM (inactive). The EC50 in “cells [15]” was 18.7 µM (active); in test [19], > 67.6 µM (inactive); in the test “cells [20]” it was > 350 µM (not active).

For `O=C(Nc1ccccc1N1CCOCC1)c1ccc([N+](=O)[O-])o1`, the EC50 in [22] was 4.18 µM (active); in [23], 25.3 µM (active). Besides, the values for the AC50 in test [24] and in [25] were 11.9 µM (active) and 3.63 µM (active), respectively.

These data come from ChEMBL document CHEMBL1201862, “PubChem BioAssay data set” (2004).
